Measured values: publication PMC6150025, “Novel Mixed-Type Inhibitors of Protein Tyrosine Phosphatase 1B. Kinetic and Computational Studies” (Molecules : A Journal of Synthetic Chemistry and Natural …, 2017)
Blank lines part the entries; values can stand above or below the molecule they belong to.

Target: T1, PTP1B (Homo sapiens, UniProt P18031)
T1 construct: encodes for PTP1B (residues 1–321); inferred from the pET28A vector, NdeI/BamHI cloning and Ni-agarose purification) (N); made in house; host or cells: E. coli BLR
T1 sequence (P18031 1-321): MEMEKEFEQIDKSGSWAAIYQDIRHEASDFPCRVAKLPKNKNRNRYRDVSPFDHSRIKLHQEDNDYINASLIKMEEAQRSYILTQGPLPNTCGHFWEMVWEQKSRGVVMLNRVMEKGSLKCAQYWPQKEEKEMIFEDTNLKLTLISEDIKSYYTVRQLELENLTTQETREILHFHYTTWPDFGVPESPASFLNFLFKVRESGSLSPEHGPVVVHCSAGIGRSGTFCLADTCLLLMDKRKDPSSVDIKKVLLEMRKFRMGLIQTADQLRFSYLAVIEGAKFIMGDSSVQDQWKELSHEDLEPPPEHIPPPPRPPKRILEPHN
Assay: PTP1B enzymatic inhibition assay (pNPP substrate)
Type: biochemical
Settings: for Ki: Lineweaver-Burk analysis, mixed type model; for Inhibition Type: Lineweaver-Burk plots; for IC50: curves at different concentration of each compound; for Vmax / Km: from fit of the kinetic data for each inhibitor; for α: mixed type inhibition model; for Km: pNPP; for % Inhibition: Table S1, values marked a: tested at 100 µM due to solubility problems
Experimental: The PTP1B activity was measured based on the Goldstein method. The assay was performed with a final reaction volume of 500 µL in HEPES buffer (50 mM HEPES, 1mM DTT, 2 mM EDTA and 150 mM NaCl, pH 7.0), DMSO (10%) and p-nitrophenol phosphate (pNPP) as substrate (50 mM), the reaction was started with the PTP1B (1.5 µg/mL). After 30 min of incubation at 37 °C, the reaction was stopped by the addition of 500 µL of NaOH 5N reading the absorbance at 405 nm. The number of hydrolyzed moles of pNPP was determined using the molar extinction coefficient of the product pNP (18,500 M^−1 cm^−1).
Inhibition assays were performed under the above described conditions, adding to the reaction each one of the molecules at a final concentration of 200 µM. The concentration that inhibits 50% (IC50) of the PTP1B activity was determined through curves at different concentration of each compound, adjusting the data to the equation reported elsewhere. The inhibition type and constant were obtained by the measurement of the initial velocities of hydrolysis varying the substrate concentration in a range of 2–30 µM, in absence or presence of fixed concentrations of each inhibitor. For compound 1 the concentrations used were 3, 6, 10 and 20 µM; in the case of compound 2 were 2, 4, 6, 8, and 10 µM; and for compound 3 were 20, 50, 70 and 90 µM. The experimental data were analyzed through the Lineweaver-Burk plot using the software Sigma Plot V12.3 (Systat Software, Inc., San Jose, CA, USA).

[1] = 200 µM compound, pNPP 50 mM, 30 min, 37 °C

% Inhibition (200 µM) (Table S1, 200 µM compound): 64%
SMILES: COC(=O)c1cccc2nc(Cc3ccc([N+](=O)[O-])cc3)sc12 [methyl 2-[(4-nitrophenyl)methyl]-1,3-benzothiazole-7-carboxylate]

inhibition at 200 µM [1]: 84%
SMILES: CCCc1cc(=O)oc2cc(OC(C)C(=O)NNS(=O)(=O)c3cccc(C(F)(F)F)c3)ccc12 (stereo not shown) [Compound 6, N′1-{2-[(2-oxo-4-propyl-2H-chromen-7-yl)oxy]propanoyl}-3-(trifluoromethyl)benzene-1-sulfonohydrazide]

% Inhibition (200 µM) (Table S1, 200 µM compound): 38%
SMILES: COc1cc(C(CC(=O)O)CC(=O)N2CCC(n3cccc3)CC2)cc(OC)c1OC (stereo not shown) [5-oxo-5-[4-(1H-pyrrol-1-yl)piperidino]-3-(3,4,5-trimethoxyphenyl)pentanoic acid]

SMILES: CSc1nc2cc(C(=O)N/N=C/c3ccc([N+](=O)[O-])o3)ccc2n1C [1-methyl-2-(methylsulfanyl)-N'-[(E)-(5-nitrofuran-2-yl)methylidene]-1H-benzimidazole-5-carbohydrazide]
% Inhibition (200 µM) (Table S1, 200 µM compound): 34%

inhibition at 200 µM [1]: 92%
Ki: 41.3 µM
Inhibition Type: Mixed
IC50: 31.3 µM
Vmax: 10 µmol/min/mg
α: 3.3
Km: 4.1 mM
SMILES: O=C(Nc1nc2cc(Oc3cccc(Cl)c3Cl)c(Cl)cc2[nH]1)C(F)(F)F [Compound 3, N-[6-Chloro-5-(2,3-dichlorophenoxy)-1H-benzimidazol-2-yl]-2,2,2-trifluoroacetamide]

% Inhibition (200 µM) (Table S1, 200 µM compound): 63%
SMILES: O=C(Nc1ccc(COc2ccccc2)cc1)Oc1ccccc1N1CCOCC1 [2-morpholinophenyl N-[4-(phenoxymethyl)phenyl]carbamate]

% Inhibition (200 µM) (Table S1, 200 µM compound): 64%
SMILES: N#Cc1ccc(-c2c(NC(=O)NS(=O)(=O)c3ccccc3Cl)oc(-c3ccco3)c2C#N)cc1 [2-[({[(2-chlorophenyl)sulphonyl]amino}carbonyl)amino]-4-cyano-3-(4-cyanophenyl)-5-(2-furyl)furan]

SMILES: Cc1cc(-c2nn(C)c(=O)c3ccccc23)cc(C)c1OCC(=O)NNC(=O)Nc1ccccc1 [N1-phenyl-2-{2-[2,6-dimethyl-4-(3-methyl-4-oxo-3,4-dihydrophthalazin-1-yl)phenoxy]acetyl}hydrazine-1-carboxamide]
% Inhibition (200 µM) (Table S1, 200 µM compound): 52%

inhibition at 200 µM [1]: 88%
SMILES: O=C(CSc1nnnn1-c1ccc(O)cc1)c1ccc2c(c1)OCO2 [Compound 4, 1-(1,3-benzodioxol-5-yl)-2-{[1-(4-hydroxyphenyl)-1H-1,2,3,4-tetraazol-5-yl]sulfanyl}-1-ethanone]

inhibition at 200 µM (Table S1, 200 µM compound): 37%
SMILES: O=C(O)c1ccccc1N1CCOCC1 [2-morpholinobenzoic acid]

% Inhibition (200 µM) (Table S1, 200 µM compound): 50%
SMILES: COC(=O)c1cc(S(=O)(=O)NCC2CN(Cc3ccccc3)CN(Cc3ccccc3)C2)oc1C [methyl 5-({[(1,3-dibenzylhexahydro-5-pyrimidinyl)methyl]amino}sulfonyl)-2-methyl-3-furoate]

inhibition at 200 µM [1]: 100%
Ki: 5.2 µM
Inhibition Type: Mixed
IC50: 7.5 µM
Vmax: 8.8 µmol/min/mg
α: 1.4
Km: 6.7 mM
SMILES: CSc1nc2cc(Cl)c(C(=O)Nc3nc4cc(Oc5cccc(Cl)c5Cl)c(Cl)cc4[nH]3)cc2n1C [Compound 1, 5-Chloro-N-[6-chloro-5-(2,3-dichlorophenoxy)-1H-benzimidazol-2-yl]-1-methyl-2-(methylthio)-1H-benz-imidazole-6-carboxamide]

% Inhibition (200 µM) (Table S1, 200 µM compound): 63%
SMILES: O=C(CSc1nc2cc(Oc3cccc4ccccc34)c(Cl)cc2[nH]1)Nc1ncc([N+](=O)[O-])s1 [2-({6-chloro-5-[(naphthalen-1-yl)oxy]-1H-benzimidazol-2-yl}sulfanyl)-N-(5-nitro-1,3-thiazol-2-yl)acetamide]

SMILES: O=S(=O)(c1ccc(NC(=S)Nc2ccc3c(c2)OCO3)cc1)N1CCCCC1 [N-(1,3-benzodioxol-5-yl)-N'-[4-(piperidinosulfonyl)phenyl]thiourea]
% Inhibition (200 µM) (Table S1, 200 µM compound): 32%

SMILES: O=C(NNS(=O)(=O)c1cc(C(F)(F)F)cc(C(F)(F)F)c1)c1cnn(-c2ccccc2)c1C(F)(F)F [N'1-{[1-phenyl-5-(trifluoromethyl)-1H-pyrazol-4-yl]carbonyl}-3,5-di(trifluoromethyl)benzene-1-sulfonohydrazide]
% Inhibition (200 µM) (Table S1, 200 µM compound): 45%

SMILES: Cn1c(SCCn2ccnc2)nc2ccc(Cl)cc21 [6-chloro-2-{[2-(1H-imidazol-1-yl)ethyl]sulfanyl}-1-methyl-1H-benzimidazole]
% Inhibition (200 µM) (Table S1, 200 µM compound): 32%

% Inhibition: 63%
SMILES: Cn1c(SCC(=O)Nc2nccs2)nc2cc(Cl)c(Oc3cccc4ccccc34)cc21 [2-({5-chloro-1-methyl-6-[(naphthalen-1-yl)oxy]-1H-benzimidazol-2-yl}sulfanyl)-N-(1,3-thiazol-2-yl)acetamide]

SMILES: COC(=O)c1cc2nc(SCC(=O)Nc3ccc([N+](=O)[O-])cn3)[nH]c2cc1Cl [methyl 6-chloro-2-({2-[(5-nitropyridin-2-yl)amino]-2-oxoethyl}sulfanyl)-1H-benzimidazole-5-carboxylate]
% Inhibition (200 µM) (Table S1, 200 µM compound): 63%

inhibition at 200 µM [1]: 99%
Ki: 4.2 µM
Inhibition Type: Mixed
IC50: 8.4 µM
Vmax: 16 µmol/min/mg
α: 2.9
Km: 6.8 mM
SMILES: O=C(CSc1nc2cc(Oc3cccc4ccccc34)c(Cl)cc2[nH]1)Nc1nccs1 [Compound 2, 2-[6-Chloro-5-(1-naphthalyloxy)-1H-benzimidazol-2-yl]thio-N-(thiazol-2-yl)acetamide]

SMILES: CSc1nc2cc(C(=O)N/N=C/c3ccc([N+](=O)[O-])o3)ccc2[nH]1 [2-(methylsulfanyl)-N'-[(E)-(5-nitrofuran-2-yl)methylidene]-1H-benzimidazole-5-carbohydrazide]
% Inhibition: 50%

SMILES: Cn1c(SCCn2ccnc2)nc2cc(Cl)ccc21 [5-chloro-2-{[2-(1H-imidazol-1-yl)ethyl]sulfanyl}-1-methyl-1H-benzimidazole]
% Inhibition (200 µM) (Table S1, 200 µM compound): 42%

inhibition at 200 µM [1]: 85%
SMILES: CN(C)S(=O)(=O)Oc1ccc(-c2noc(-c3ccc(Oc4cc(Cl)cc(Cl)c4)o3)n2)cc1 [Compound 5, 4-{5-[5-(3,5-dichlorophenoxy)-2-furyl]-1,2,4-oxadiazol-3-yl}phenyl-N,N-dimethylsulfamate]

% Inhibition (200 µM) (Table S1, 200 µM compound): 37%
SMILES: O=C1COc2cc(O)ccc21 [6-hydroxy-2,3-dihydrobenzo[b]furan-3-one]

SMILES: Cc1nc2cc(C(=O)N/N=C/c3ccc([N+](=O)[O-])o3)ccc2[nH]1 [2-methyl-N'-[(E)-(5-nitrofuran-2-yl)methylidene]-1H-benzimidazole-5-carbohydrazide]
% Inhibition: 54%

inhibition at 200 µM [1]: 65%
SMILES: C[S+]([O-])c1nc2cc(Cl)c(Oc3cccc4ccccc34)cc2[nH]1 (stereo not shown) [Compound 10]

inhibition at 200 µM [1]: 74%
inhibition at 200 µM (Table S1, 200 µM compound): 64%
SMILES: CCCCCc1ccc(S(=O)(=O)Nc2ncccc2OCc2cc(F)cc(F)c2)cc1 [Compound 8, N-{3-[(3,5-difluorobenzyl)oxy]pyridin-2-yl}-4-pentylbenzenesulfonamide]

% Inhibition (200 µM) (Table S1, 200 µM compound): 38%
SMILES: CN(C)S(=O)(=O)Oc1ccc(-c2noc(-c3ccc(OC(F)(F)F)cc3)n2)cc1 [N,N-dimethyl(4-{5-[4-(trifluoromethoxy)phenyl]-1,2,4-oxadiazol-3-yl}phenyl)sulfamate]

% Inhibition (200 µM) (Table S1, 200 µM compound): 34%
SMILES: O=C(O)c1csc(-c2ccc(C(F)(F)F)cc2)n1 [2-[4-(trifluoromethyl)phenyl]-1,3-thiazole-4-carboxylic acid]

% Inhibition (200 µM) (Table S1, 200 µM compound): 54%
SMILES: Cn1c(SCC(=O)Nc2nccs2)nc2cc(Oc3cccc4ccccc34)c(Cl)cc21 [2-({6-chloro-1-methyl-5-[(naphthalen-1-yl)oxy]-1H-benzimidazol-2-yl}sulfanyl)-N-(1,3-thiazol-2-yl)acetamide]

SMILES: COC(=O)c1cc2nc(SCC(=O)Nc3ncc([N+](=O)[O-])s3)[nH]c2cc1Cl [methyl 6-chloro-2-({2-[(5-nitro-1,3-thiazol-2-yl)amino]-2-oxoethyl}sulfanyl)-1H-benzimidazole-5-carboxylate]
% Inhibition (200 µM) (Table S1, 200 µM compound): 63%

% Inhibition (200 µM) (Table S1, 200 µM compound): 64%
SMILES: O=C(CSc1nnc(-c2cc(OCC(F)(F)F)ccc2OCC(F)(F)F)o1)c1ccccc1 [2-({5-[2,5-di(2,2,2-trifluoroethoxy)phenyl]-1,3,4-oxadiazol-2-yl}thio)-1-phenylethan-1-one]

SMILES: O=C(O)c1ccc2[nH]c3c(c2c1)CCCC3 [6,7,8,9-Tetrahydro-5h-carbazole-3-carboxylic acid]
% Inhibition (200 µM) (Table S1, 200 µM compound): 32%

inhibition at 200 µM (Table S1, 200 µM compound): 44%
SMILES: OCc1ccccc1N1CCOCC1 [(2-morpholinophenyl)methanol]
